Two compounds from publication PMC6255697, “The major nectar protein of Brassica rapa is a non-specific lipid transfer protein, BrLTP2.1, with strong antifungal activity” (Journal of Experimental Botany, 2018) can be followed below.

In test [1] the target is T1, BrLTP2.1 (Brassica rapa, UniProt A0A8D9LMK4).
T1 construct: gene BRAPAZ1V2_A03P14030.2; predicted mature protein, residues 27-98 of 98 (signal peptide removed), amplified from genomic DNA; N-terminal T7-tag and C-terminal His6 kept; pET21a(+) in E. coli SHuffle T7 Express lysY
As to the kind of experiment: TNS displacement fluorescence. It is filed as binding. The note with it: 2.5 uM protein and 2.5 uM TNS, ligand 0-10 uM, pH 7.0; competitive with TNS.

Test [2] concerns the target T1, BrLTP2.1. Put plainly: TNS displacement fluorescence; protein lipid overlay. The test is classed as binding. The note with it: 2.5 uM protein and 2.5 uM TNS, ligand 0-10 uM, pH 7.0; competitive with TNS.

T1 sequence (A0A8D9LMK4 entry or part of it): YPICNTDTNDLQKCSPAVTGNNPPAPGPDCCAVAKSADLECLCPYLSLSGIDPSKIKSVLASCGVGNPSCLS

Consider `CCCCCCCCCCCCCCCC(=O)O` [palmitic acid], for which, on BrLTP2.1 [1], the TNS displacement fluorescence entry was “Each of the three free fatty acids tested strongly reduced TNS-dependent fluorescence”.

For the compound `CCCCCCCCCCCCCCCCCC(=O)O` [stearic acid], on BrLTP2.1 [2], the “TNS displacement fluorescence; protein lipid overlay” value is given as “Each of the three free fatty acids tested strongly reduced TNS-dependent fluorescence”.
